Experiments:
[1] = 101 kPa, Liquid, Pycnometric method
[2] = xn = mol fraction of the nth substance listed; details: 101 kPa, Liquid, Pycnometric method

CC(=O)[O-].CCn1cc[n+](C)c1 [1-ethyl-3-methylimidazolium acetate]
[1]
Details	mass density [kg/m3]
298.1 K	1102
323.1 K	1086
348.1 K	1073
373.1 K	1059

CCn1cc[n+](C)c1.O=C([O-])C(F)(F)F [1-ethyl-3-methylimidazolium trifluoroacetate] + CC(=O)[O-].CCn1cc[n+](C)c1
mass density [kg/m3], [2]
Details	298.1 K	323.1 K	348.1 K	373.1 K
x1 = 0.2464	1152	1136	1121	1107
x1 = 0.5002	1204	1189	1172	1157
x1 = 0.7468	1252	1235	1217	1202
x1 = 1	1301	1283	1264	1250

CC(=O)[O-].CCn1cc[n+](C)c1 [1-ethyl-3-methylimidazolium acetate] + CCn1cc[n+](C)c1.O=C([O-])C(F)(F)F
[2], x2 = 0
Details	mass density [kg/m3]
298.1 K	1102
323.1 K	1086
348.1 K	1073
373.1 K	1059

CCn1cc[n+](C)c1.O=C([O-])C(F)(F)F [1-ethyl-3-methylimidazolium trifluoroacetate]
[1]
Details	mass density [kg/m3]
298.1 K	1301
323.1 K	1283
348.1 K	1264
373.1 K	1250
